Molecular target: T1, uterine OT receptors (Rattus norvegicus, UniProt P70536)
T1 construct: using a crude membrane preparation of uteri; from tissue; host or cells: uterus of DES-treated rats, crude membrane preparation
T1 sequence (P70536 1-388): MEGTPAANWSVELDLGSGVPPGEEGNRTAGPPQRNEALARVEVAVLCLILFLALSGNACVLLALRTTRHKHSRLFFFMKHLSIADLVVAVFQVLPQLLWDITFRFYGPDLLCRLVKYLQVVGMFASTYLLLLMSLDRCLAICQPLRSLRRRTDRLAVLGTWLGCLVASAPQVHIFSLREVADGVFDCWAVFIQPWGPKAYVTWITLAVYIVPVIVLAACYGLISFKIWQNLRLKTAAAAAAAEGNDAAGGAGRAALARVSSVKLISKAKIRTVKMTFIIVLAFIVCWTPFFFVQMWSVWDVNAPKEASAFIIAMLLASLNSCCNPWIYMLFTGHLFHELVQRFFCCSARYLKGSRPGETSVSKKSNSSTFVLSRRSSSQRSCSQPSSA
Experiment: [³H]Oxytocin radioligand binding assay, crude membrane preparation of uteri from DES-treated rats
Conditions: for inhibition at 0.1 µM: read-out: inhibition at 100 nM; for inhibition at 1 µM: read-out: inhibition at 1,000 nM; for IC50: competition with 1 nM [³H]OT, 60 minutes, 22°C, concentration that inhibits 50% of OT, read-out: IC50; for inhibition at 10 µM: read-out: inhibition at 10,000 nM
Protocol: The high affinity binding of [³H] Oxytocin (OT)([tyrosyl, 3,5-[³H]OT; 30-60 Ci/mmol; New England Nuclear. Boston, MA) to uterine OT receptors was based on an assay (Fuchs, A-R; Fuchs, F; Soloff, MS. 1985 J. Clin. Endocrinol. Metab. 60:37) using a crude membrane preparation of uteri taken from diethylstilbestrol dipropionate (DES)-treated (0.3 mg/kg, ip; 18-24) rats. Competition studies were conducted at equilibrium (60 minutes; 22°C) using 1 nM[³H]OT in the following assay buffer: 50 mM Tris-HCl, 5 mM MgCl₂, and 0.1% BSA, pH 7.4. Nonspecific binding (10% of the total binding) was determined using 1 mM unlabeled OT and the binding reaction was terminated by filtration through glass fiber filters using a cell harvester (model 7019, Skatron, Inc., Sterling, VA). IC₅₀ (the concentration of tested compound that inhibits 50% of OT) was reported, unless otherwise noted.

For “1-((7,7-Dimethyl-2-(3-acetamido-3-carboxy)propylidine-bicyclo(2.2.1)-heptan-1-yl)methanesulfonyl)-4-(2-methylphenyl)piperazine [Example 29]”, the “inhibition at 1,000 nM” value (at 1,000 nM, 1 µM) was 78% inhibition at 1,000 nM.
With “1-((7,7-Dimethyl-2-exo-hydroxy-2-endo-2-(1-(4-pyridinyl)methylamino)-propyl-bicyclo(2.2.1)heptan-1-yl)methanesulfonyl)-4-(2-methylphenyl)-piperazine [Example 27]” the “inhibition at 100 nM” value (at 100 nM) was 37% inhibition at 100 nM.
`COC(=O)CCNCC(C)C1(O)CC2CCC1(CS(=O)(=O)N1CCN(c3ccccc3C)CC1)C2(C)C` (stereo not drawn) [Example 10, 1-((7,7-Dimethyl-2-exo-hydroxy-2-endo-2-(1-(2-methoxycarbonylethyl)-amino)propyl-bicyclo(2.2.1)heptan-1-yl)methanesulfonyl)-4-(2-methylphenyl)piperazine] gave an inhibition at 0.1 µM of 48%.
`C=CC1(O)CC2CCC1(CS(=O)(=O)N1CCN(c3ccccc3C)CC1)C2(C)C` (stereo not drawn) [Example 12, 1-((7,7-dimethyl-2-exo-hydroxy-2-endo-ethenyl-bicyclo(2.2.1)heptan-1-yl)methanesulfonyl)-4-(2-methylphenyl)piperazine] was tested, and the inhibition at 0.1 µM was 23%.
With `Cc1ccccc1N1CCN(S(=O)(=O)CC23CCC(CC2=CCN=[N+]=[N-])C3(C)C)CC1` (stereo not shown) [Example 15, 1-((7,7-dimethyl-2-(2-azido)ethylidine-bicyclo-(2.2.1)heptan-1-yl)methanesulfonyl)-4-(2-methyl-phenyl)piperazine] the inhibition at 1 µM was 44%.
In the case of `Cc1ccccc1N1CCN(S(=O)(=O)CC23CCC(CC2=CCN)C3(C)C)CC1` (stereo not shown) [Example 16, 1-((7,7-dimethyl-2-(2-amino)ethylidine-bicyclo-(2.2.1)heptan-1-yl)methanesulfonyl)-4-(2-methyl-phenyl)piperazine], the inhibition at 1 µM is reported as 64%.
`Cc1ccccc1N1CCN(S(=O)(=O)CC23CCC(CC2=CCNC(=O)Cc2cnc[nH]2)C3(C)C)CC1` (stereo not shown) [Example 17, 1-((7,7-dimethyl-2-(2-(4(5)-imidazolylacetyl)amino)-ethylidine-bicyclo(2.2.1)heptan-1-yl)methane-sulfonyl)-4-(2-methylphenyl)piperazine] showed an inhibition at 0.1 µM of 36%.
For `Cc1ccccc1N1CCN(S(=O)(=O)CC23CCC(CC24CO4)C3(C)C)CC1` (stereo not shown) [Example 18, 1-((7,7-Dimethyl-2-spiro-epoxy-bicyclo(2.2.1)heptan-1-yl)methane-sulfonyl)-4-(2-methylphenyl)piperazine], the inhibition at 1 µM was 75%.
`Cc1ccccc1N1CCN(S(=O)(=O)C[C@]23CC[C@H](C[C@]2(O)CNCC(C)C)C3(C)C)CC1` [Example 19, 1-((7,7-Dimethyl-2-exo-hydroxy-2-endo-isobutylamino-methyl-bicyclo(2.2.1)heptan-1-yl)methanesulfonyl)-4-(2-methylphenyl)piperazine] showed an inhibition at 1 µM of 31%.
Molecule `COC(=O)C1=CC2CCC1(CS(=O)(=O)N1CCN(c3ccccc3C)CC1)C2(C)C` (stereo not shown) [Example 20, 1-((7,7-Dimethyl-2-methoxycarbonyl-bicyclo(2.2.1)hept-2-en-1-yl)methanesulfonyl)-4-(2-methylphenyl)-piperazine] has an inhibition at 1 µM of 72%.
`Cc1ccccc1N1CCN(S(=O)(=O)CC23CCC(C=C2C(=O)O)C3(C)C)CC1` (stereo not shown) [Example 21, 1-((7,7-Dimethyl-2-carboxy-bicyclo(2.2.1)hept-2-en-1-yl)methanesulfonyl)-4-(2-methylphenyl)piperazine] gave an inhibition at 1 µM of 38%.
`Cc1ccccc1N1CCN(S(=O)(=O)CC23CCC(C=C2C(=O)NCCc2cnc[nH]2)C3(C)C)CC1` (stereo not shown) [Example 22, 1-((7,7-Dimethyl-2-(4-imidazolyl)ethylaminocarbonyl-bicyclo(2.2.1)hept-2-en-1-yl)methanesulfonyl)-4-(2-methylphenyl)piperazine] was tested, and the inhibition at 1 µM was 78%.
Work on `COC(=O)[C@H]1C[C@H]2CC[C@]1(CS(=O)(=O)N1CCN(c3ccccc3C)CC1)C2(C)C` [Example 23, 1-((7,7-Dimethyl-2-endo-methoxycarbonyl-bicyclo-(2.2.1)heptan-1-yl)methanesulfonyl)-4-(2-methyl-phenyl)piperazine] yielded an IC50 of 120 nM.
`Cc1ccccc1N1CCN(S(=O)(=O)C[C@]23CC[C@H](C[C@@H]2C(=O)O)C3(C)C)CC1` [Example 24, 1-((7,7-Dimethyl-2-endo-carboxy-bicyclo(2.2.1)heptan-1-yl)methane-sulfonyl)-4-(2-methylphenyl)piperazine] gave an IC50 of 260 nM.
`Cc1ccccc1N1CCN(S(=O)(=O)C[C@]23CC[C@H](C[C@@H]2C(=O)NCCc2cnc[nH]2)C3(C)C)CC1` [Example 25, 1-((7,7-Dimethyl-2-endo-(4-imidazolyl)ethylamino-carbonyl-bicyclo-(2.2.1)heptan-1-yl)methanesulfonyl)-4-(2-methylphenyl)piperazine] was tested, and the inhibition at 0.1 µM was 34%.
With `CCOC(=O)C(CC=C1CC2CCC1(CS(=O)(=O)N1CCN(c3ccccc3C)CC1)C2(C)C)(NC(C)=O)C(=O)OCC` (stereo not shown) [Example 28, 1-((7,7-Dimethyl-2-(3-acetamido-3,3'-di(ethoxycarbonyl))propylidine-bicyclo(2.2.1)heptan-1-yl)methanesulfonyl)-4-(2-methylphenyl)piperazine] the inhibition at 0.1 µM was 35%.
For `Cc1ccccc1N1CCN(S(=O)(=O)CC23CCC(CC2=O)C3(C)C)CC1=O` (stereo not shown) [Example 30, 1-((7,7-Dimethyl-2-oxo-bicyclo(2.2.1)heptan-1-yl)methanesulfonyl)-4-(2-methylphenyl)-3-piperazinone], the inhibition at 10 µM was 16%.
`Cc1ccccc1N1CCN(S(=O)(=O)CC23CCC(CC2=O)C3(C)C)C(C)C1=O` (stereo not shown) [Example 31, 1-((7,7-Dimethyl-2-oxo-bicyclo(2.2.1)heptan-1-yl)methanesulfonyl)-4-(2-methylphenyl)-2-methyl-3-piperazinone] gave an inhibition at 10 µM of 5%.
Molecule `Cc1ccccc1N1CCN(S(=O)(=O)C[C@]23CC[C@H](C[C@H]2O)C3(C)C)C(C)C1` (stereo partly drawn) [Example 32, 1-((7,7-Dimethyl-2-exo-hydroxy-bicyclo(2.2.1)heptan-1-yl)methane-sulfonyl)-4-(2-methylphenyl)-2-methyl-piperazine] has an inhibition at 1 µM of 37%.
`Cc1ccccc1N1CCN(S(=O)(=O)CC23CCC(CC2=NO)C3(C)C)CC1` (stereo not shown) [Example 33, 1-((7,7-Dimethyl-2-oximino-bicyclo(2.2.1)heptan-1-yl)methanesulfonyl)-4-(2-methylphenyl)-piperazine] was tested, and the IC50 was 460 nM.
In the case of `Cc1ccccc1N1CCN(S(=O)(=O)C[C@]23CC[C@H](C[C@@H]2NC(=O)[C@H](CCS(C)(=O)=O)NC(=O)OC(C)(C)C)C3(C)C)CC1` [Example 35, 1-((7,7-Dimethyl-2-endo-(2S-(tert-butyloxycarbonyl-amino)-4-(methyl-sulfonyl)-butyramido)-bicyclo(2.2.1)-heptan-1-yl)methanesulfonyl)-4-(2-methylphenyl)-piperazine], the inhibition at 0.1 µM is reported as 91%.
Work on `Cc1ccccc1N1CCN(S(=O)(=O)C[C@]23CC[C@H](C[C@@H]2NC(=O)[C@@H](N)CCS(C)(=O)=O)C3(C)C)CC1` [Example 36, 1-((7,7-Dimethyl-2-endo-(2S-amino-4-(methylsulfonyl)-butyramido)-bicyclo(2.2.1)heptan-1-yl)methanesulfonyl)-4-(2-methylphenyl)piperazine] yielded an IC50 of 7.7 nM.

— patent EP0532097A1, “Piperazinyl(sulfon)amide derivatives of camphor as oxytocin antagonists” (MERCK & CO. INC., priority 1991, dated 1993)
